Data reported in patent EP2873675A1, “Peptide-based peroxidase inhibitors and methods of using same” (The Medical College of Wisconsin, Inc., priority 2013, dated 2015).
“Also recorded” adds a separate entry of the source. Positions of bridges follow the written chain, without caps; N, C: chain ends. Non-standard residues stand in square brackets, D forms with d. Residues, ends and D or L forms follow the SMILES beside them. Chains are numbered I, II in the order given.

How the values were obtained:
[1] = biological target: T1, MPO (Homo sapiens, UniProt P05164); assay: MPO-mediated LDL oxidation (conjugated diene formation, absorbance at 234 nm); type: biochemical; details: 25 µM; for MPO/H2O2/nitrite-mediated LDL oxidation: H2O2 100 µM, NaNO2 100 µM, MPO 20 nM; for MPO/H2O2-mediated LDL oxidation: in the absence of nitrite
T1 construct: purchased Lee Biosolutions (St. Louis, MO)
T1 sequence (P05164 49-745): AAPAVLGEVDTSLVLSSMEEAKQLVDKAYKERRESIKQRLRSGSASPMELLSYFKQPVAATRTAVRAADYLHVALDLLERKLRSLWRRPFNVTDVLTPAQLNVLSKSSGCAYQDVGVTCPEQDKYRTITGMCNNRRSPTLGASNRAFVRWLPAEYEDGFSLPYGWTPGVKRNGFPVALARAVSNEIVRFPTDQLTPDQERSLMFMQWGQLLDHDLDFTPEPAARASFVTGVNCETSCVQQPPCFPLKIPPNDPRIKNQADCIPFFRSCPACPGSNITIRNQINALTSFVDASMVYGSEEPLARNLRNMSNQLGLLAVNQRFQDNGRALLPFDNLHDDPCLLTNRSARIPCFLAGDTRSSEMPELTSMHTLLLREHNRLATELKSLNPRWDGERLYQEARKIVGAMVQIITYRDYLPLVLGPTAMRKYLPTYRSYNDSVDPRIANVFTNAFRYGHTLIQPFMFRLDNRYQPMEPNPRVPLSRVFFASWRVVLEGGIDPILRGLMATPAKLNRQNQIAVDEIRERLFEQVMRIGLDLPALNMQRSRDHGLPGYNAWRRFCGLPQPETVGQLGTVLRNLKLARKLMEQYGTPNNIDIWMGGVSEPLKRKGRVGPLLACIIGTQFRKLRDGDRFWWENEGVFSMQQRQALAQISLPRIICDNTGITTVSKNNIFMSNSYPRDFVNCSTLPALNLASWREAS
Procedure: (§1) MPO-mediated oxidation of LDL. Reaction mixtures contained LDL (0.15 mg/ml), NaNO2 (100 µM), H2O2 (300 µM), MPO (20 nM) and various concentrations of KYC in a potassium phosphate buffer (100 mM, pH 7.4) containing DTPA (100 µM). LDL oxidation was monitored at 234 nm at room temperature on a HP UV/VIS spectrometer. Absorbance traces represent the average of duplicate experiments.
(§2) MPO-mediated LDL Oxidation. Reaction mixtures contained LDL (0.15 mg/mL), NaNO2 (100 µM), H2O2 (100 µM), MPO (20 nM) and increasing concentrations of KYC in a phosphate buffer (100 mM, pH 7.4) containing DTPA (100 µM). Rates of LDL oxidation were monitored at room temperature at 234 nm, the wavelength maximum for conjugated dienes.
(§3) MPO-mediated LDL Conjugated Diene Formation: Reaction mixtures contained LDL (0.15 mg/mL), NaNO2 (100 µM), H2O2 (100 µM), MPO (20 nM) and increasing concentrations of KYC or equimolar concentrations of various compounds in a phosphate buffer (100 mM, pH 7.4) containing DTPA (100 µM). Rates of LDL conjugated diene formation were determined by following changes in absorbance at 234 nm, the wavelength maximum for conjugated dienes, on a UV-Vis spectrophotometer (Agilent Model 8453) at room temperature.

[2] = biological target: T1, MPO; assay: MPO-catalyzed HOCl production (taurine/TMB assay); type: biochemical; details: 12.5 µM
Procedure: (§4) MPO-mediated HOCl Production. MPO (20 nM) was incubated with H2O2 (50 µM), NaCl (150 mM), taurine (5 mM) and increasing concentrations of KYC in phosphate buffer (100 mM, pH 7.4) which also contained diethylene triamine pentaacetic acid (DTPA, 100 µM) to prevent non-specific, divalent metal cation oxidation for 30 min. Reactions were halted by addition of catalase. Chlorotaurine was quantified using the 3,3-,5,5-tetramethylbenzidine (TMB) assay. Briefly, 400 µL of reaction solution was mixed with 100 µL of 2 mM TMB, 100 µM NaI containing 10% dimethylformamide (DMF) in 400 mM acetate buffer (pH 5.4). After 5 min, absorbance (650 nm) was recorded on a UV/Vis spectrophotometer (Agilent Model 8453).
(§5) MPO-catalyzed HOCl Production: MPO (20 nM) was incubated with H2O2 (50 µM), NaCl (150 mM), taurine (5 mM) and increasing concentrations of KYC in a phosphate buffer (100 mM, pH 7.4) containing diethylene triamine pentaacetic acid (DTPA, 100 µM) to prevent non-specific, divalent metal cation oxidation for 30 min. Reactions were halted by addition of catalase (2,000 units/mL). Chlorotaurine was quantified using the TMB assay (66). Briefly, 400 µL of reaction solution was mixed with 100 µL of 2 mM TMB, 100 µM NaI containing 10% dimethylformamide (DMF) in 400 mM acetate buffer (pH 5.4). After 5 min, absorbance (650 nm) was recorded on a UV/Vis spectrophotometer (Agilent Model 8453).

[3] = tested on: SS/Mcw rat hearts; assay: Ischemia/reperfusion injury in isolated perfused hearts (Langendorff)
Description: Ischemia/Reperfusion (I/R) Injury in Isolated Hearts. Rats used in this study received humane care in compliance with the Guide for the Care and Use of Laboratory Animals, by the National Research Council. Rats were maintained on a low salt (0.4% NaCl) diet with unlimited access to water. Environmental influences were minimized by maintaining rats in identical housing conditions. Dahl S (SS/Mcw male rats at 8 weeks of age were used for this study.
Modified Krebs-Henseleit bicarbonate buffer was prepared containing the following components (in mM): 118.5 NaCl, 25.0 NaHCO3, 4.8 KCl, 1.2 MgSO4·6H2O, and 1.2 KH2PO4 (pH 7.4 when gassed with 95% O2-5% CO2) in which the calcium content was 1.8. Glucose (11.1 mM) was added to the perfusate. Before use, all perfusion fluids were filtered through cellulose acetate membranes with a pore size of 5 µm. To this perfusate, drugs (KAA, KYC) were added as needed. Animals were weighed, and heparin was administered intraperitoneally based on weight (150 IU/kg). Anesthesia was induced with pentobarbital sodium (30 mg/kg ip). Once adequate anesthesia was obtained, the abdomen was opened, and the diaphragm was separated from its chest wall attachments and the pericardium opened. The aorta was clamped and the heart excised. The heart was then immediately transferred to the Langendorff apparatus, and the aorta was cannulated and secured using silk ties. Coronary arteries were perfused at constant pressure (80 mmHg) in a retrograde fashion with Krebs buffer. The heart was immersed in a bath containing Krebs buffer at 37.2 +/- 0.1°C to maintain conditions of normothermia. Left ventricular pressure (LVP) was measured isovolumetrically with a transducer connected to a thin, saline-filled latex balloon inserted into the left ventricle through the mitral valve from an incision in the left atrium.
Drug perfusion. After steady-state levels of function were reached, hearts were perfused with HZ2 (Ac-KYC-NH2) or HZ3 (Ac-KWC-NH2) at 50mg/L for 40 min prior to 35 min global ischemia and 2 hour reperfusion. The protocol for perfusing isolated hearts with or without KWC or scramble peptide KAA is described in Fig. 5A.

[4] = tested on: hypertensive rats; details: large doses; cited from earlier work
[5] = tested on: NADPH oxidase (NOX); assay: PMA-stimulated HL-60 cell superoxide formation (SOD-inhibitable cytochrome C reduction); type: cell-based, human; details: cytochrome C assay
Procedure: PMA-induced Superoxide Anion Formation. HL-60 cells were cultured in RPMI 1640 medium containing 10 % FCS (passage 20-50). HL-60 cells were harvested by centrifugation (1000 rpm, 10 min), washed 2X with phosphate buffer (10 mM, pH 7.4) with NaCl (138 mM), KCl (2.67 mM), CaCl2 (0.901 mM), MgCl2 (0.493 mM) and glucose (1mg/ml) to remove culture medium. The HL-60 cells (6 x10^6/0.5ml) were re-suspended in DPBS. After stimulation with PMA (10 µM), the HL-60 cells were incubated with cytochrome C (40 µM) with or without superoxide dismutase at 37°C for 30 min. The reaction was stopped by centrifugation. Cytochrome C reduction was measured at 550 nm on a UV-Vis spectrophotometer (Agilent, Model 8453).
PMA-stimulated HL-60 cell O2^•- Formation: HL-60 cells were harvested by centrifugation (1000 rpm, 10 min), washed twice with DPBS with glucose to remove culture medium. The HL-60 cells (1.2 x10^7/ml) were re-suspended in DPBS with glucose. After stimulation with PMA (10 µM), the HL-60 cells were incubated with cytochrome C (40 µM) with or without superoxide dismutase (500 units/mL) at 37 °C for 10 min and then the HL-60 cells were removed by centrifugation. Cytochrome C reduction in supernatants was measured at 550 nm using a UV-Vis spectrophotometer (Agilent, Model 8453).

[6] = Thiol reduction of KYC disulfide (HPLC); type: physicochemical
Description: To confirm that KYC oxidation by MPO yields a simple disulfide, we reduced the product using simple thiols such as glutathione (GSH) and dithiothreitol (DTT).

[7] = tested on: MPO; assay: MPO-mediated LDL oxidation (conjugated diene formation, absorbance at 234 nm); type: biochemical; details: 25 µM; H2O2 100 µM, NaNO2 100 µM, MPO 20 nM
Procedure: as §1, §2, §3

[8] = tested on: MPO; assay: MPO-catalyzed HOCl production (taurine/TMB assay); type: biochemical; details: for MPO-catalyzed HOCl production, dose-dependent effects: increasing concentrations
Procedure: as §4, §5

In the case of `N[C@@H](Cc1ccc(O)cc1)C(=O)O` [Tyr, tyrosine], the “MPO/H2O2/nitrite-mediated LDL oxidation” value [1] is reported as “accelerated and enhanced LDL oxidation”, the “MPO/H2O2-mediated LDL oxidation” value [1] is reported as “increased MPO-mediated LDL oxidation” and the “MPO-catalyzed HOCl production, comparison at equimolar concentration” value [2] is reported as “little, if any effect”. The “MPO-catalyzed HOCl production, comparison at equimolar concentration” value ([2]; listed as Tyrosine) was “little if any effect”.

With `N[C@@H](CCC(=O)N[C@@H](CS)C(=O)NCC(=O)O)C(=O)O` [GSH, glutathione] the “MPO/H2O2/nitrite-mediated LDL oxidation” value [1] was “ineffective for inhibiting LDL oxidation” and the “MPO/H2O2-mediated LDL oxidation” value [1] was “inhibited LDL oxidation; also recorded: did not increase LDL oxidation”.

In the case of `CC(=O)N[C@@H](CCCCN)C(=O)N[C@@H](Cc1c[nH]c2ccccc12)C(=O)N[C@@H](CS)C(N)=O` [KWC, Ac-KWC-amide] (Ac-Lys-Trp-Cys-NH2), the “percent recovery of LVDP after I/R injury” value ([3]; perfusion 40 min prior to 35 min global ischemia and 2 hour reperfusion, untreated 37.1±4.3) is reported as 55.3±4.1%, the “left ventricular developed pressure (LVDP) after I/R injury” value ([3]; perfusion 40 min prior to 35 min global ischemia and 2 hour reperfusion, untreated 38±3.9) is reported as 57.3±4.8 mmHg and the “increase of coronary flow rates after perfusion into the hearts” value ([3]; prior to ischemia) is reported as “more than 20%”. For the same molecule, the “percent recovery of coronary flow rates after I/R” value ([3]; untreated control 49.6±3.4, p<0.05) was 65.2±4%.

For `COc1ccc2[nH]cc(CCNC(C)=O)c2c1` [melatonin], the “number of apoptotic cells in the vessel wall” value [4] is listed as “increased the number of apoptotic cells in the vessel wall”.

With `N[C@@H](Cc1c[nH]c2ccccc12)C(=O)O` [Trp, tryptophan] the “MPO/H2O2/nitrite-mediated LDL oxidation” value [1] was “did not inhibit but actually enhanced LDL oxidation”, the “MPO/H2O2-mediated LDL oxidation” value [1] was “increased MPO-mediated LDL oxidation” and the “MPO-catalyzed HOCl production, comparison at equimolar concentration” value [2] was “effective inhibitor”.

In the case of `CC(=O)N[C@@H](CCCCN)C(=O)N[C@@H](Cc1ccc(O)cc1)C(=O)N[C@@H](CSSC[C@H](NC(=O)[C@H](Cc1ccc(O)cc1)NC(=O)[C@H](CCCCN)NC(C)=O)C(N)=O)C(N)=O` [KYC disulfide] (I: Ac-Lys-Tyr-Cys-NH2 / II: Ac-Lys-Tyr-Cys-NH2; disulfide I:3-II:3), the “O2•- production in PMA-stimulated HL-60 cells” value [5] is reported as “neither KYC nor KYC disulfide have any significant effect; also recorded: Neither KYC nor KYC disulfide had any significant effect”, the “reduction to KYC monomer by GSH” value ([6]; 10 mM GSH, 120 min) is reported as “completely reduced” and the “time to complete reduction to KYC monomer by DTT” value ([6]; DTT 0.5 mM, room temperature) is reported as no more than 5 min.

In the case of “N-acetyl Lysylphenylalanylcysteine amid [KFC]”, the “MPO/H2O2/nitrite-mediated LDL oxidation” value [7] is reported as “increased the lag phase and delayed, but did not totally inhibit LDL oxidation”, the “reduction of HOCl detected by the taurine/TMB assay” value ([8]; 25 µM) is reported as 35% and the “MPO-catalyzed HOCl production, dose-dependent effects” value [8] is reported as “weaker inhibitor of HOCl formation”.

For “N-acetyl Lysyltyrosylcyeteine amide [KYS]”, the “MPO/H2O2/nitrite-mediated LDL oxidation” value [7] was “accelerated LDL oxidation” and the “MPO-catalyzed HOCl production, dose-dependent effects” value [8] was “failed to inhibit; also recorded: not an inhibitor”.

With `CC(=O)N[C@H](CCCCN)C(=O)N[C@H](Cc1ccc(O)cc1)C(=O)N[C@H](CS)C(N)=O` [Ac-(d)K(d)Y(d)C-amide] (Ac-[dK]-[dY]-[dC]-NH2) the “MPO-catalyzed HOCl production, comparison at equimolar concentration” value ([8]; 12.5 µM) was “less effective than KYC”.
